Source: ChEMBL document CHEMBL1255543, “On resin amino acid side chain attachment strategy for the head to tail synthesis of new glutamine containing gramicidin-S analogs and their antimicrobial activity” (2010)
In brackets after ≈: the same amount, converted by molar mass. Peptide text beside a SMILES is read from it.

Tests used:
Format in all cases: functional
Escherichia coli = test: Antimicrobial activity against Escherichia coli ATCC 25922 by broth microdilution assay
Streptococcus pyogenes = test: Antimicrobial activity against Streptococcus pyogenes by broth microdilution assay
Staphylococcus aureus = test: Antimicrobial activity against methicillin-resistant Staphylococcus aureus ATCC 33591 by broth microdilution assay
Streptococcus agalactiae = test: Antimicrobial activity against Streptococcus agalactiae COH1 by broth microdilution assay
Enterococcus faecalis = test: Antimicrobial activity against Enterococcus faecalis ATCC 51299 by broth microdilution assay
Pseudomonas aeruginosa = test: Antimicrobial activity against Pseudomonas aeruginosa ATCC 27853 by broth microdilution assay
[1] = Streptococcus pyogenes, read-out: MIC

SMILES: CC(C)C[C@@H]1NC(=O)[C@H](CCC(N)=O)NC(=O)[C@H](C(C)C)NC(=O)[C@@H]2CCCN2C(=O)[C@@H](Cc2cccs2)NC(=O)[C@H](CC(C)C)NC(=O)[C@H](CCC(N)=O)NC(=O)[C@H](C(C)C)NC(=O)[C@@H]2CCCN2C(=O)[C@@H](Cc2cccs2)NC1=O
- MIC (Escherichia coli): > 100 µg/mL
- MIC (Streptococcus pyogenes; [1]): > 100 µg/mL
- MIC (Staphylococcus aureus): > 100 µg/mL
- MIC (Streptococcus agalactiae): > 100 µg/mL
- MIC (Enterococcus faecalis): > 100 µg/mL
- MIC (Pseudomonas aeruginosa): > 100 µg/mL

SMILES: CC(C)C[C@@H]1NC(=O)[C@@H]2CCCN2C(=O)[C@H](Cc2ccccc2)NC(=O)[C@H](C(C)C)NC(=O)[C@H](CCC(N)=O)NC(=O)[C@H](C(C)C)NC(=O)[C@@H]2CCCN2C(=O)[C@H](Cc2ccccc2)NC(=O)[C@H](C(C)C)NC(=O)[C@H](CCC(N)=O)NC1=O (stereo in doubt; form 2)
- MIC (Streptococcus pyogenes): 10 µg/mL (≈ 8.65 µM)

SMILES: CC(C)C[C@@H]1NC(=O)[C@H](CCC(N)=O)NC(=O)[C@H](C(C)C)NC(=O)[C@@H]2CCCN2C(=O)[C@@H](Cc2ccc(O)cc2)NC(=O)[C@H](CC(C)C)NC(=O)[C@H](CCC(N)=O)NC(=O)[C@H](C(C)C)NC(=O)[C@@H]2CCCN2C(=O)[C@@H](Cc2ccc(O)cc2)NC1=O
- MIC (Escherichia coli): > 100 µg/mL
- MIC (Streptococcus pyogenes; [1]): > 100 µg/mL
- MIC (Staphylococcus aureus): > 100 µg/mL
- MIC (Streptococcus agalactiae): > 100 µg/mL
- MIC (Enterococcus faecalis): > 100 µg/mL
- MIC (Pseudomonas aeruginosa): > 100 µg/mL

SMILES: CC(C)C[C@@H]1NC(=O)[C@H](CCC(N)=O)NC(=O)[C@H](CC(C)C)NC(=O)[C@@H]2CCCN2C(=O)[C@H](Cc2ccccc2)NC(=O)[C@H](C(C)C)NC(=O)[C@H](CCC(N)=O)NC(=O)[C@H](CC(C)C)NC(=O)[C@@H]2CCCN2C(=O)[C@H](Cc2ccccc2)NC1=O (cyclo(FPLQLFPLQV))
- MIC (Escherichia coli): > 100 µg/mL
- MIC (Streptococcus pyogenes; [1]): 10 µg/mL (≈ 8.45 µM)
- MIC (Staphylococcus aureus): > 100 µg/mL
- MIC (Streptococcus agalactiae): 10 µg/mL (≈ 8.45 µM)
- MIC (Enterococcus faecalis): > 100 µg/mL
- MIC (Pseudomonas aeruginosa): > 100 µg/mL

SMILES: CC(C)C[C@@H]1NC(=O)[C@H](CCC(N)=O)NC(=O)[C@H](C(C)C)NC(=O)[C@@H]2CCCN2C(=O)[C@H](Cc2ccccc2)NC(=O)[C@H](C(C)C)NC(=O)[C@H](CCC(N)=O)NC(=O)[C@H](C(C)C)NC(=O)[C@@H]2CCCN2C(=O)[C@H](Cc2ccccc2)NC1=O (cyclo(FPVQLFPVQV))
- MIC (Escherichia coli): > 100 µg/mL
- MIC (Streptococcus pyogenes; [1]): 10 µg/mL (≈ 8.65 µM)
- MIC (Staphylococcus aureus): > 100 µg/mL
- MIC (Streptococcus agalactiae): > 100 µg/mL
- MIC (Enterococcus faecalis): > 100 µg/mL
- MIC (Pseudomonas aeruginosa): > 100 µg/mL

SMILES: CC(C)C[C@@H]1NC(=O)[C@H](CCC(N)=O)NC(=O)[C@H](CC(C)C)NC(=O)[C@@H]2CCCN2C(=O)[C@H](Cc2ccccc2)NC(=O)[C@H](C(C)C)NC(=O)[C@H](CCC(N)=O)NC(=O)[C@H](C(C)C)NC(=O)[C@@H]2CCCN2C(=O)[C@H](Cc2ccccc2)NC1=O (cyclo(FPLQLFPVQV))
- MIC (Escherichia coli): > 100 µg/mL
- MIC (Streptococcus pyogenes; [1]): 10 µg/mL (≈ 8.55 µM)
- MIC (Staphylococcus aureus): > 100 µg/mL
- MIC (Streptococcus agalactiae): > 100 µg/mL
- MIC (Enterococcus faecalis): > 100 µg/mL
- MIC (Pseudomonas aeruginosa): > 100 µg/mL

SMILES: CC(C)C[C@@H]1NC(=O)[C@H](CCC(N)=O)NC(=O)[C@H](C(C)C)NC(=O)[C@@H]2CCCN2C(=O)[C@@H](Cc2c[nH]c3ccccc23)NC(=O)[C@H](CC(C)C)NC(=O)[C@H](CCC(N)=O)NC(=O)[C@H](C(C)C)NC(=O)[C@@H]2CCCN2C(=O)[C@@H](Cc2c[nH]c3ccccc23)NC1=O
- MIC (Escherichia coli): > 100 µg/mL
- MIC (Streptococcus pyogenes; [1]): > 100 µg/mL
- MIC (Staphylococcus aureus): > 100 µg/mL
- MIC (Streptococcus agalactiae): > 100 µg/mL
- MIC (Enterococcus faecalis): > 100 µg/mL
- MIC (Pseudomonas aeruginosa): > 100 µg/mL

SMILES: CC(C)C[C@@H]1NC(=O)[C@H](CCC(N)=O)NC(=O)[C@H](C(C)C)NC(=O)[C@@H]2CCCN2C(=O)[C@H](Cc2ccccc2)NC(=O)[C@H](C(C)C)NC(=O)[C@H](CCC(N)=O)NC(=O)[C@H](CC(C)C)NC(=O)[C@@H]2CCCN2C(=O)[C@H](Cc2ccccc2)NC1=O (cyclo(FPLQVFPVQL))
- MIC (Escherichia coli): > 100 µg/mL
- MIC (Streptococcus pyogenes; [1]): 10 µg/mL (≈ 8.55 µM)
- MIC (Staphylococcus aureus): > 100 µg/mL
- MIC (Streptococcus agalactiae): > 100 µg/mL
- MIC (Enterococcus faecalis): > 100 µg/mL
- MIC (Pseudomonas aeruginosa): > 100 µg/mL

SMILES: CC(C)C[C@@H]1NC(=O)[C@H](CCC(N)=O)NC(=O)[C@H](C(C)C)NC(=O)[C@@H]2CCCN2C(=O)[C@@H](c2ccccc2)NC(=O)[C@H](CC(C)C)NC(=O)[C@H](CCC(N)=O)NC(=O)[C@H](C(C)C)NC(=O)[C@@H]2CCCN2C(=O)[C@@H](c2ccccc2)NC1=O
- MIC (Escherichia coli): > 100 µg/mL
- MIC (Streptococcus pyogenes; [1]): 10 µg/mL (≈ 8.76 µM)
- MIC (Staphylococcus aureus): > 100 µg/mL
- MIC (Streptococcus agalactiae): > 100 µg/mL
- MIC (Enterococcus faecalis): > 100 µg/mL
- MIC (Pseudomonas aeruginosa): > 100 µg/mL

SMILES: CC(C)C[C@@H]1NC(=O)[C@H](CCC(N)=O)NC(=O)[C@H](C(C)C)NC(=O)[C@@H]2CCCN2C(=O)[C@@H](Cc2ccc(I)cc2)NC(=O)[C@H](CC(C)C)NC(=O)[C@H](CCC(N)=O)NC(=O)[C@H](C(C)C)NC(=O)[C@@H]2CCCN2C(=O)[C@@H](Cc2ccc(I)cc2)NC1=O
- MIC (Escherichia coli): > 100 µg/mL
- MIC (Streptococcus pyogenes; [1]): 10 µg/mL (≈ 7.04 µM)
- MIC (Staphylococcus aureus): > 100 µg/mL
- MIC (Streptococcus agalactiae): > 100 µg/mL
- MIC (Enterococcus faecalis): > 100 µg/mL
- MIC (Pseudomonas aeruginosa): > 100 µg/mL

SMILES: CC(C)C[C@@H]1NC(=O)[C@H](CCC(N)=O)NC(=O)[C@H](C(C)C)NC(=O)[C@@H]2CCCN2C(=O)[C@H](Cc2ccccc2)NC(=O)[C@H](CC(C)C)NC(=O)[C@H](CCC(N)=O)NC(=O)[C@H](C(C)C)NC(=O)[C@@H]2CCCN2C(=O)[C@H](Cc2ccccc2)NC1=O (cyclo(FPVQLFPVQL))
- MIC (Escherichia coli): > 100 µg/mL
- MIC (Streptococcus pyogenes; [1]): 10 µg/mL (≈ 8.55 µM)
- MIC (Staphylococcus aureus): > 100 µg/mL
- MIC (Streptococcus agalactiae): > 100 µg/mL
- MIC (Enterococcus faecalis): > 100 µg/mL
- MIC (Pseudomonas aeruginosa): > 100 µg/mL

SMILES: CC(C)C[C@@H]1NC(=O)[C@H](CCC(N)=O)NC(=O)[C@H](CC(C)C)NC(=O)[C@@H]2CCCN2C(=O)[C@H](Cc2ccccc2)NC(=O)[C@H](CC(C)C)NC(=O)[C@H](CCC(N)=O)NC(=O)[C@H](CC(C)C)NC(=O)[C@@H]2CCCN2C(=O)[C@H](Cc2ccccc2)NC1=O (cyclo(FPLQLFPLQL))
- MIC (Escherichia coli): > 100 µg/mL
- MIC (Streptococcus pyogenes; [1]): 10 µg/mL (≈ 8.35 µM)
- MIC (Staphylococcus aureus): > 100 µg/mL
- MIC (Streptococcus agalactiae): > 100 µg/mL
- MIC (Enterococcus faecalis): > 100 µg/mL
- MIC (Pseudomonas aeruginosa): > 100 µg/mL

SMILES: CC(C)C[C@@H]1NC(=O)[C@H](CCC(N)=O)NC(=O)[C@H](C(C)C)NC(=O)[C@@H]2CCCN2C(=O)[C@@H](Cc2ccc(F)cc2)NC(=O)[C@H](CC(C)C)NC(=O)[C@H](CCC(N)=O)NC(=O)[C@H](C(C)C)NC(=O)[C@@H]2CCCN2C(=O)[C@@H](Cc2ccc(F)cc2)NC1=O
- MIC (Escherichia coli): > 100 µg/mL
- MIC (Streptococcus pyogenes; [1]): 10 µg/mL (≈ 8.3 µM)
- MIC (Staphylococcus aureus): > 100 µg/mL
- MIC (Streptococcus agalactiae): > 100 µg/mL
- MIC (Enterococcus faecalis): > 100 µg/mL
- MIC (Pseudomonas aeruginosa): > 100 µg/mL

SMILES: CC(C)[C@@H]1NC(=O)[C@H](CCC(N)=O)NC(=O)[C@H](C(C)C)NC(=O)[C@@H]2CCCN2C(=O)[C@H](Cc2ccccc2)NC(=O)[C@H](C(C)C)NC(=O)[C@H](CCC(N)=O)NC(=O)[C@H](C(C)C)NC(=O)[C@@H]2CCCN2C(=O)[C@H](Cc2ccccc2)NC1=O (cyclo(FPVQVFPVQV))
- MIC (Escherichia coli): > 100 µg/mL
- MIC (Streptococcus pyogenes; [1]): > 100 µg/mL
- MIC (Staphylococcus aureus): > 100 µg/mL
- MIC (Streptococcus agalactiae): > 100 µg/mL
- MIC (Enterococcus faecalis): > 100 µg/mL
- MIC (Pseudomonas aeruginosa): > 100 µg/mL

SMILES: CC(C)C[C@@H]1NC(=O)[C@@H]2CCCN2C(=O)[C@H](Cc2ccccc2)NC(=O)[C@H](C(C)C)NC(=O)[C@H](CCC(N)=O)NC(=O)[C@H](C(C)C)NC(=O)[C@@H]2CCCN2C(=O)[C@H](Cc2ccccc2)NC(=O)[C@H](C(C)C)NC(=O)[C@H](CCC(N)=O)NC1=O (stereo in doubt; form 1)
- MIC (Escherichia coli): > 100 µg/mL
- MIC (Streptococcus pyogenes): >100 µg/mL
- MIC (Staphylococcus aureus): > 100 µg/mL
- MIC (Streptococcus agalactiae): > 100 µg/mL
- MIC (Enterococcus faecalis): > 100 µg/mL
- MIC (Pseudomonas aeruginosa): > 100 µg/mL
